{"source": "patent US8293909B2", "about": "“Compounds for the treatment of hepatitis C” (Bristol-Myers Squibb Company, priority 2008, dated 2012)", "key": {"[1]": {"biological_target": "T1, HCV NS5B RdRp genotype 1b (Hepatitis C virus genotype 1b, UniProt Q9WMX2)", "T1 construct": "The protein was expressed with an 18 amino acid C-terminal truncation to enhance the solubility; made in house; host or cells: E. coli BL21(DE3), pET21a vector", "T1 sequence (Q9WMX2 2420-2992)": "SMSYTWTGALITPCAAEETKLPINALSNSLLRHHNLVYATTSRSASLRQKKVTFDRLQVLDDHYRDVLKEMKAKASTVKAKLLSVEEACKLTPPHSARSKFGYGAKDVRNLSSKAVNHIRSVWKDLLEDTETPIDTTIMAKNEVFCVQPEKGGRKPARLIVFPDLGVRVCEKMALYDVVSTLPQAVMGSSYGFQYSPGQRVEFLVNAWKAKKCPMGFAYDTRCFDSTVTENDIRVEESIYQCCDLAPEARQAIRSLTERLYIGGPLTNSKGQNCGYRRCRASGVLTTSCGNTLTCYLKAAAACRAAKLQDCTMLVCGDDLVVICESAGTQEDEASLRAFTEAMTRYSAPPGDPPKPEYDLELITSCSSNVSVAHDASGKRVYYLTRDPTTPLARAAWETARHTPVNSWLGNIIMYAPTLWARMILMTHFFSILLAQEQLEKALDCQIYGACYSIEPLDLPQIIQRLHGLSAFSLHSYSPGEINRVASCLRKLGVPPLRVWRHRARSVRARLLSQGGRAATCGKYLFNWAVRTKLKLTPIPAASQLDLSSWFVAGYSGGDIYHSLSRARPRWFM", "experiment": "HCV NS5B RdRp enzyme assay (standard / modified)", "assay_type": "biochemical", "details": "HCV NS5B genotype 1b", "how_it_was_run": "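Genotype 1b NS5B with an 18-aa C-terminal truncation, expressed in E. coli, was tested by SPA incorporation of 3H-UTP (0.29 μM) on polyA/biotin-oligo-dT12. Standard assay: 28 nM enzyme, 6 nM template, 180 nM primer, 60 min at 30 °C, pH 7.5, 2% DMSO. Modified assay: 14 nM enzyme added to compound first, 0.2 nM template, 20 nM bead-precaptured primer, 4 h at 30 °C. IC50 used seven inhibitor concentrations.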"}, "HCV replicon cells": {"test_system": "HCV replicon cells", "experiment": "HCV replicon assay (FRET or luciferase readout)", "assay_type": "cell-based", "details": "Hepatitis C virus", "how_it_was_run": "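Replicon cells (with or without Renilla luciferase reporter) incubated with titrated compounds at 37 °C; Alamar blue read for cytotoxicity first. NS3 protease activity read kinetically with 20 μM EDANS/DABCYL FRET peptide in lysis reagent plus 150 mM NaCl (ex 340/em 490), or by Dual-Glo luciferase. EC50 = 50% signal reduction after protease-inhibitor background subtraction.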"}}, "note": "pEC50, pIC50: −log10 of the molar value."}
{"smiles": "CNC(=O)c1c(-c2ccc(F)cc2)nc2ccc(-c3cccc(C(=O)NC(C)(C)c4ccccc4)c3)cn12", "values": [{"measurement": "pIC50", "setting": "[1]; Table 1", "value": "6.60 to 8.70"}, {"measurement": "pEC50", "setting": "HCV replicon cells; Table 1", "value": "6.60 to 8.70"}]}
{"smiles": "CNC(=O)c1c(-c2ccc(F)cc2)oc2ncc(-c3cccc(C(=O)NC4(c5ccccc5)CC4)c3)cc12", "values": [{"measurement": "pIC50", "setting": "[1]; Table 1", "value": "6.60 to 8.70"}, {"measurement": "pEC50", "setting": "HCV replicon cells; Table 1", "value": "6.60 to 8.70"}]}
{"smiles": "CNC(=O)c1c(-c2ccc(F)cc2)nn2ccc(NS(=O)(=O)c3cccc(OC)c3)cc12", "values": [{"measurement": "pIC50", "setting": "[1]; Table 1", "value": "< 5.00"}, {"measurement": "pEC50", "setting": "HCV replicon cells; Table 1", "value": "< 5.00"}]}
{"smiles": "CNC(=O)c1c(-c2ccc(F)cc2)nn2ccc(-c3cc(C(=O)NC4(c5ccc(F)cc5)CC4)c(OC)cc3C)c(F)c12", "values": [{"measurement": "pIC50", "setting": "[1]; Table 1", "value": "6.60 to 8.70"}, {"measurement": "pEC50", "setting": "HCV replicon cells; Table 1", "value": "6.60 to 8.70"}]}
{"smiles": "CNC(=O)c1c(-c2ccc(F)cc2)nn2ccc(-c3cc(C(=O)NC4(c5ccccn5)CC4)c(OC)cc3C)c(F)c12", "note": "[drawing 178]", "values": [{"measurement": "pIC50", "setting": "[1]; Table 2", "value": 7.70}, {"measurement": "pEC50", "setting": "HCV replicon cells; Table 2", "value": 8.08}]}
{"smiles": "CNC(=O)c1c(-c2ccc(F)cc2)nn2cc(F)c(-c3cc(C(=O)NC4(c5ccccc5)CC4)ccc3C)cc12", "values": [{"measurement": "pIC50", "setting": "[1]; Table 1", "value": "6.60 to 8.70"}, {"measurement": "pEC50", "setting": "HCV replicon cells; Table 1", "value": "6.60 to 8.70"}]}
{"smiles": "CNC(=O)c1c(-c2ccccc2)nn2cc(-c3ccccc3OC)ccc12", "values": [{"measurement": "pIC50", "setting": "[1]; Table 1", "value": "5.00 to 6.00"}, {"measurement": "pEC50", "setting": "HCV replicon cells; Table 1", "value": "5.00 to 6.00"}]}
{"smiles": "CCN(c1cn2nc(-c3ccc(F)cc3)c(C(=O)NC)c2cc1-c1cc(C(=O)NC2(c3ccc(F)cc3)CC2)ccc1C)S(C)(=O)=O", "values": [{"measurement": "pIC50", "setting": "[1]; Table 1", "value": "6.60 to 8.70"}, {"measurement": "pEC50", "setting": "HCV replicon cells; Table 1", "value": "6.60 to 8.70"}]}
{"smiles": "CNC(=O)c1c(-c2ccc(F)cc2)oc2ncc(-c3cccc(C(=O)NC(C)(C)c4ccccc4)c3)cc12", "values": [{"measurement": "pIC50", "setting": "[1]; Table 1", "value": "6.60 to 8.70"}, {"measurement": "pEC50", "setting": "HCV replicon cells; Table 1", "value": "6.60 to 8.70"}]}
{"smiles": "CCN(c1cn2nc(-c3ccc(F)cc3)c(C(=O)NC)c2cc1C1CC1)S(C)(=O)=O", "values": [{"measurement": "pIC50", "setting": "[1]; Table 1", "value": "6.60 to 8.70"}, {"measurement": "pEC50", "setting": "HCV replicon cells; Table 1", "value": "6.60 to 8.70"}]}
{"smiles": "CNC(=O)c1c(-c2ccc(F)cc2)nc2ccc(-c3cccc(C(=O)NC4(c5ccccc5)CC4)c3)cn12", "values": [{"measurement": "pIC50", "setting": "[1]; Table 1", "value": "6.60 to 8.70"}, {"measurement": "pEC50", "setting": "HCV replicon cells; Table 1", "value": "6.60 to 8.70"}]}
{"smiles": "CNC(=O)c1c(-c2ccc(F)cc2)nn2ccc(N)cc12", "values": [{"measurement": "pIC50", "setting": "[1]; Table 1", "value": "< 5.00"}, {"measurement": "pEC50", "setting": "HCV replicon cells; Table 1", "value": "< 5.00"}]}
{"smiles": "CNC(=O)c1c(-c2ccc(F)cc2)oc2ncc(-c3cc(C(=O)NC4(c5ncccn5)CC4)ccc3C)cc12", "values": [{"measurement": "pIC50", "setting": "[1]; Table 1", "value": "6.60 to 8.70"}, {"measurement": "pEC50", "setting": "HCV replicon cells; Table 1", "value": "6.60 to 8.70"}]}
{"smiles": "CNC(=O)c1c(-c2ccc(F)cc2)oc2ncc(-c3cccc(C(=O)NC(C)(C)C)c3)cc12", "values": [{"measurement": "pIC50", "setting": "[1]; Table 1", "value": "6.60 to 8.70"}, {"measurement": "pEC50", "setting": "HCV replicon cells; Table 1", "value": "6.60 to 8.70"}]}
{"smiles": "CNC(=O)c1c(-c2ccc(F)cc2)nn2ccc(NCc3ccccc3)cc12", "values": [{"measurement": "pIC50", "setting": "[1]; Table 1", "value": "< 5.00"}, {"measurement": "pEC50", "setting": "HCV replicon cells; Table 1", "value": "< 5.00"}]}
{"smiles": "CNC(=O)c1c(-c2ccc(F)cc2)nn2ccc(NC(=O)c3cccc(OC)c3)cc12", "values": [{"measurement": "pIC50", "setting": "[1]; Table 1", "value": "< 5.00"}, {"measurement": "pEC50", "setting": "HCV replicon cells; Table 1", "value": "< 5.00"}]}
{"smiles": "CNC(=O)c1c(-c2ccc(F)cc2)nn2ccc(-c3cc(C(=O)NC4(c5ccccc5)CC4)ccc3C)cc12", "note": "[drawing 87]", "values": [{"measurement": "pIC50", "setting": "[1]; Table 1", "value": "6.60 to 8.70"}, {"measurement": "pEC50", "setting": "HCV replicon cells; Table 1", "value": "6.60 to 8.70"}]}
{"smiles": "CNC(=O)c1c(-c2ccc(F)cc2)nn2ccc(OC)cc12", "values": [{"measurement": "pIC50", "setting": "[1]; Table 1", "value": "< 5.00"}, {"measurement": "pEC50", "setting": "HCV replicon cells; Table 1", "value": "< 5.00"}]}
{"smiles": "CNC(=O)c1c(-c2ccc(F)cc2)nn2ccc(-c3cc(C(=O)NC4(C(C)C)CC4)c(OC)cc3C)c(F)c12", "values": [{"measurement": "pIC50", "setting": "[1]; Table 1", "value": "6.60 to 8.70"}, {"measurement": "pEC50", "setting": "HCV replicon cells; Table 1", "value": "6.60 to 8.70"}]}
{"smiles": "CNC(=O)c1c(-c2ccc(F)cc2)oc2cnc(-c3cccc(C(=O)NC4(c5ccccn5)CC4)c3)cc12", "values": [{"measurement": "pIC50", "setting": "[1]; Table 1", "value": "6.60 to 8.70"}, {"measurement": "pEC50", "setting": "HCV replicon cells; Table 1", "value": "5.00 to 6.00"}]}
{"smiles": "CNC(=O)c1c(-c2ccc(F)cc2)nn2cc(N(CCO)S(C)(=O)=O)ccc12", "values": [{"measurement": "pIC50", "setting": "[1]; Table 1", "value": "< 5.00"}, {"measurement": "pEC50", "setting": "HCV replicon cells; Table 1", "value": "< 5.00"}]}
{"smiles": "CNC(=O)c1c2cc(-c3cc(C(=O)NC(C)(C)c4ccccc4)ccc3C)ccc2nn1-c1ccc(F)cc1", "values": [{"measurement": "pIC50", "setting": "[1]; Table 1", "value": "6.60 to 8.70"}, {"measurement": "pEC50", "setting": "HCV replicon cells; Table 1", "value": "6.60 to 8.70"}]}
{"smiles": "CNC(=O)c1c(-c2ccc(F)cc2)nn2cc(N(CCO)S(C)(=O)=O)c(OC)cc12", "note": "[drawing 184]", "values": [{"measurement": "pIC50", "setting": "[1]; Table 2", "value": 5.53}, {"measurement": "pEC50", "setting": "HCV replicon cells; Table 2", "value": 5.40}]}
{"smiles": "CNC(=O)c1c(-c2ccc(F)cc2)nn2ccc(-n3ccc(C(=O)NC(C)(C)c4ccccc4)c3)cc12", "values": [{"measurement": "pIC50", "setting": "[1]; Table 1", "value": "5.00 to 6.00"}, {"measurement": "pEC50", "setting": "HCV replicon cells; Table 1", "value": "< 5.00"}]}
{"smiles": "CNC(=O)c1c(-c2ccc(F)cc2)nn2c(C)cc(-c3cc(C(=O)NC4(c5ccccc5)CC4)ccc3C)cc12", "values": [{"measurement": "pIC50", "setting": "[1]; Table 1", "value": "6.60 to 8.70"}, {"measurement": "pEC50", "setting": "HCV replicon cells; Table 1", "value": "6.60 to 8.70"}]}
{"smiles": "CNC(=O)c1c(-c2ccc(F)cc2)nc2ccc(-c3cc(C(=O)NC(C)(C)c4ccccc4)ccc3C)cn12", "values": [{"measurement": "pIC50", "setting": "[1]; Table 1", "value": "6.60 to 8.70"}, {"measurement": "pEC50", "setting": "HCV replicon cells; Table 1", "value": "6.60 to 8.70"}]}
{"smiles": "CNC(=O)c1c(-c2ccc(F)cc2)oc2ncc(-c3cc(C(=O)NC4(c5ccccn5)CC4)ccc3C)cc12", "note": "[drawing 116]", "values": [{"measurement": "pIC50", "setting": "[1]; Table 1", "value": "6.60 to 8.70"}, {"measurement": "pEC50", "setting": "HCV replicon cells; Table 1", "value": "6.60 to 8.70"}]}
{"smiles": "CNC(=O)c1c(-c2ccc(F)cc2)nn2ccc(NC(=O)c3ccc(OC)cc3)cc12", "values": [{"measurement": "pIC50", "setting": "[1]; Table 1", "value": "< 5.00"}, {"measurement": "pEC50", "setting": "HCV replicon cells; Table 1", "value": "< 5.00"}]}
